According to patent US20040063662A1, “Selenophene anti-tumor agents” (priority 1996, published 2004):
Where two headings read alike, the source gives them in different places.

How the values were obtained:
CCRF-CEM = experiment: NCI human tumor cell panel: CCRF-CEM (Leukemia); format: cell-based; settings: for GI50: read-out: Log10 GI50 (converted); for IC (TGI): read-out: Log10 TGI (converted)
HL-60(TB) = experiment: NCI human tumor cell panel: HL-60(TB) (Leukemia); format: cell-based; settings: for GI50: read-out: Log10 GI50 (converted)
MOLT-4 = experiment: NCI human tumor cell panel: MOLT-4 (Leukemia); format: cell-based; settings: for GI50: MOLT-4, read-out: Log10 GI50 (converted); for IC (TGI): MOLT-4, read-out: Log10 TGI (converted)
HOP-62 = experiment: NCI human tumor cell panel: HOP-62 (Non-Small Cell Lung Cancer); format: cell-based; settings: for GI50: HOP-62, read-out: Log10 GI50 (converted); for IC (TGI): HOP-62, read-out: Log10 TGI (converted)
NCI-H226 = experiment: NCI human tumor cell panel: NCI-H226 (Non-Small Cell Lung Cancer); format: cell-based; settings: for GI50: NCI-H226, read-out: Log10 GI50 (converted); for IC (TGI): NCI-H226, read-out: Log10 TGI (converted)
NCI-H23 = experiment: NCI human tumor cell panel: NCI-H23 (Non-Small Cell Lung Cancer); format: cell-based; settings: for GI50: NCI-H23, read-out: Log10 GI50 (converted); for IC (TGI): NCI-H23, read-out: Log10 TGI (converted)
HCC-2998 = experiment: NCI human tumor cell panel: HCC-2998 (Colon Cancer); format: cell-based; settings: for GI50: HCC-2998, read-out: Log10 GI50 (converted); for IC (TGI): HCC-2998, read-out: Log10 TGI (converted)
HCT-116 = experiment: NCI human tumor cell panel: HCT-116 (Colon Cancer); format: cell-based; settings: for GI50: HCT-116, read-out: Log10 GI50 (converted); for IC (TGI): HCT-116, read-out: Log10 TGI (converted)
HCT-15 = experiment: NCI human tumor cell panel: HCT-15 (Colon Cancer); format: cell-based; settings: for GI50: HCT-15, read-out: Log10 GI50 (converted); for IC (TGI): HCT-15, read-out: Log10 TGI (converted)
HT29 = experiment: NCI human tumor cell panel: HT29 (Colon Cancer); format: cell-based; settings: for GI50: HT-29, HT29, read-out: Log10 GI50 (converted); for IC (TGI): HT-29, HT29, read-out: Log10 TGI (converted)
SW-620 = experiment: NCI human tumor cell panel: SW-620 (Colon Cancer); format: cell-based; settings: for GI50: SW-620, read-out: Log10 GI50 (converted); for IC (TGI): SW-620, read-out: Log10 TGI (converted)
SF-268 = experiment: NCI human tumor cell panel: SF-268 (CNS Cancer); format: cell-based; settings: for GI50: SF-268, read-out: Log10 GI50 (converted); for IC (TGI): SF-268, read-out: Log10 TGI (converted)
SNB-75 = experiment: NCI human tumor cell panel: SNB-75 (CNS Cancer); format: cell-based; settings: for GI50: SNB-75, read-out: Log10 GI50 (converted); for IC (TGI): SNB-75, read-out: Log10 TGI (converted)
U251 = experiment: NCI human tumor cell panel: U251 (CNS Cancer); format: cell-based; settings: for GI50: U-251, U251, read-out: Log10 GI50 (converted); for IC (TGI): U-251, U251, read-out: Log10 TGI (converted)
M14 = experiment: NCI human tumor cell panel: M14 (Melanoma); format: cell-based; settings: for GI50: M14, read-out: Log10 GI50 (converted); for IC (TGI): M14, read-out: Log10 TGI (converted)
SK-MEL-2 = experiment: NCI human tumor cell panel: SK-MEL-2 (Melanoma); format: cell-based; settings: for GI50: SK-MEL-2, read-out: Log10 GI50 (converted); for IC (TGI): SK-MEL-2, read-out: Log10 TGI (converted)
SK-MEL-5 = experiment: NCI human tumor cell panel: SK-MEL-5 (Melanoma); format: cell-based; settings: for GI50: SK-MEL-5, read-out: Log10 GI50 (converted); for IC (TGI): SK-MEL-5, read-out: Log10 TGI (converted)
UACC-62 = experiment: NCI human tumor cell panel: UACC-62 (Melanoma); format: cell-based; settings: for GI50: UACC-62, read-out: Log10 GI50 (converted); for IC (TGI): UACC-62, read-out: Log10 TGI (converted)
CAKI-1 = experiment: NCI human tumor cell panel: CAKI-1 (Renal Cancer); format: cell-based; settings: for GI50: CAKI-1, read-out: Log10 GI50 (converted); for IC (TGI): CAKI-1, read-out: Log10 TGI (converted)
RXF-393 = experiment: NCI human tumor cell panel: RXF-393 (Renal Cancer); format: cell-based; settings: for GI50: RXF-393, read-out: Log10 GI50 (converted); for IC (TGI): RXF-393, read-out: Log10 TGI (converted)
SN12C = experiment: NCI human tumor cell panel: SN12C (Renal Cancer); format: cell-based; settings: for GI50: read-out: Log10 GI50 (converted); for IC (TGI): read-out: Log10 TGI (converted)
DU-145 = experiment: NCI human tumor cell panel: DU-145 (Prostate Cancer); format: cell-based; settings: for GI50: DU-145, read-out: Log10 GI50 (converted); for IC (TGI): DU-145, read-out: Log10 TGI (converted)
MCF7 = experiment: NCI human tumor cell panel: MCF7 (Breast Cancer); format: cell-based; settings: for GI50: MCF7, read-out: Log10 GI50 (converted); for IC (TGI): MCF7, read-out: Log10 TGI (converted)
MDA-MB-231/ATCC = experiment: NCI human tumor cell panel: MDA-MB-231/ATCC (Breast Cancer); format: cell-based; settings: for GI50: read-out: Log10 GI50 (converted)
MDA-N = experiment: NCI human tumor cell panel: MDA-N (Breast Cancer); format: cell-based; settings: for GI50: read-out: Log10 GI50 (converted); for IC (TGI): read-out: Log10 TGI (converted)
[1] = tested on: panel of sixty different human tumor cell lines; experiment: NCI human tumor cell panel: whole panel (mean graph summary); settings: for CC50: Homo sapiens; for Log10 TGI, Delta / Log10 TGI, Range: whole panel
COLO 205 = experiment: NCI human tumor cell panel: COLO 205 (Colon Cancer); format: cell-based
[2] = Homo sapiens, MDA-MB-231, MDA-MB-231/ATCC
[3] = read-out: Log10 LC50, MG_MID, mean over the panel (converted)
[4] = read-out: Log10 LC50, row head (cell line) not given (converted)

OCc1ccc(-c2ccc(-c3ccc(CO)[se]3)s2)[se]1 [compound 676632]
GI50 (CCRF-CEM): 87.1 µM | IC (TGI) (CCRF-CEM): > 100 µM | GI50 (HL-60(TB)): > 100 µM | IC (TGI) (HL-60(TB); read-out: Log10 TGI): > 100 µM | GI50 (MOLT-4): > 100 µM | IC (TGI) (MOLT-4): > 100 µM | GI50 (HOP-62): 0.0759 µM | IC (TGI) (HOP-62): > 100 µM | GI50 (NCI-H226): 0.0195 µM | IC (TGI) (NCI-H226): 0.0537 µM | GI50 (NCI-H23): > 100 µM | IC (TGI) (NCI-H23): > 100 µM | GI50 (HCC-2998): 0.178 µM | IC (TGI) (HCC-2998): 0.55 µM | GI50 (HCT-116): > 100 µM | IC (TGI) (HCT-116): > 100 µM | GI50 (HCT-15): 0.0447 µM | IC (TGI) (HCT-15): > 100 µM | GI50 (HT29): > 100 µM | IC (TGI) (HT29): > 100 µM | GI50 (SW-620): > 100 µM | IC (TGI) (SW-620): > 100 µM | GI50 (SF-268): > 100 µM | IC (TGI) (SF-268): > 100 µM | GI50 (SNB-75): > 100 µM | IC (TGI) (SNB-75): > 100 µM | GI50 (U251): 0.0355 µM | IC (TGI) (U251): 12 µM | GI50 (M14): > 100 µM | IC (TGI) (M14): > 100 µM | GI50 (SK-MEL-2): > 100 µM | IC (TGI) (SK-MEL-2): > 100 µM | GI50 (SK-MEL-5): 63.1 µM | IC (TGI) (SK-MEL-5): > 100 µM | GI50 (UACC-62): 0.0224 µM | IC (TGI) (UACC-62): 0.0562 µM | GI50 (CAKI-1): 0.0126 µM | IC (TGI) (CAKI-1): 0.123 µM | GI50 (RXF-393): > 100 µM | IC (TGI) (RXF-393): > 100 µM | GI50 (SN12C): > 100 µM | IC (TGI) (SN12C): > 100 µM | GI50 (DU-145): 95.5 µM | IC (TGI) (DU-145): > 100 µM | GI50 (MCF7): 0.0123 µM | IC (TGI) (MCF7): > 100 µM | GI50 (MDA-MB-231/ATCC; [2]): > 100 µM | IC (TGI) (MDA-MB-231/ATCC; Homo sapiens, MDA-MB-231, MDA-MB-231/ATCC, read-out: Log10 TGI (converted)): > 100 µM | GI50 (MDA-N): > 100 µM | IC (TGI) (MDA-N): > 100 µM | CC50 [1, 3]: 69.2 µM | CC50 [1, 4]: > 100 µM | Log10 TGI ([1]; listed as head (cell line) not given): >−4.00 | Log10 GI50, MG_MID ([1]; mean over the panel): −5.16 | Log10 TGI, MG_MID ([1]; mean over the panel): −4.48 | Log10 TGI, Delta [1]: 2.89 | Log10 TGI, Range [1]: 3.37

OCc1ccc(-c2ccc(-c3ccc(CO)[se]3)[se]2)[se]1 [compound 675247]
GI50 (CCRF-CEM): 3.39 µM | IC (TGI) (CCRF-CEM): 10 µM | GI50 (HL-60(TB)): 4.07 µM | GI50 (MOLT-4): 3.31 µM | IC (TGI) (MOLT-4): 8.32 µM | GI50 (HOP-62): 5.5 µM | IC (TGI) (HOP-62): 21.4 µM | GI50 (NCI-H226): 1.7 µM | IC (TGI) (NCI-H226): 3.89 µM | GI50 (NCI-H23): 6.61 µM | IC (TGI) (NCI-H23): 25.1 µM | GI50 (COLO 205; COLO 205, read-out: Log10 GI50 (converted)): 1.95 µM | IC (TGI) (COLO 205; COLO 205, read-out: Log10 TGI (converted)): 5.13 µM | GI50 (HCC-2998): 0.851 µM | IC (TGI) (HCC-2998): 3.24 µM | GI50 (HCT-116): 0.537 µM | IC (TGI) (HCT-116): 11.2 µM | GI50 (HCT-15): 3.8 µM | IC (TGI) (HCT-15): 12.3 µM | GI50 (HT29): 1.62 µM | IC (TGI) (HT29): 7.59 µM | GI50 (SW-620): 1.35 µM | IC (TGI) (SW-620): 3.63 µM | GI50 (SF-268): 1.74 µM | IC (TGI) (SF-268): 4.37 µM | GI50 (SNB-75): 14.8 µM | IC (TGI) (SNB-75): 38.9 µM | GI50 (U251): 0.468 µM | IC (TGI) (U251): 12.3 µM | GI50 (M14): 3.72 µM | IC (TGI) (M14): 12.9 µM | GI50 (SK-MEL-2): 7.08 µM | IC (TGI) (SK-MEL-2): 24 µM | GI50 (SK-MEL-5): 1.45 µM | IC (TGI) (SK-MEL-5): 3.02 µM | GI50 (UACC-62): 0.155 µM | IC (TGI) (UACC-62): 2.45 µM | GI50 (CAKI-1): 0.0741 µM | IC (TGI) (CAKI-1): 0.468 µM | GI50 (RXF-393): 1.58 µM | IC (TGI) (RXF-393): 3.72 µM | GI50 (SN12C): 2.75 µM | IC (TGI) (SN12C): 11.7 µM | GI50 (DU-145): 6.92 µM | IC (TGI) (DU-145): 19.5 µM | GI50 (MCF7): 0.158 µM | IC (TGI) (MCF7): 11.2 µM | GI50 (MDA-MB-231/ATCC; [2]): 5.01 µM | Log10 GI50 (MDA-MB-231/ATCC; MDA-MB-231/ATCC): −5.27 | GI50 (MDA-N): 7.76 µM | IC (TGI) (MDA-N): 25.1 µM | CC50 [1, 3]: 45.7 µM | CC50 [1, 4]: > 100 µM | Log10 GI50, MG_MID ([1]; mean over the panel): −5.65 | Log10 TGI, Delta [1]: 1.36 | Log10 TGI, Range [1]: 2.33
